According to ChEMBL document CHEMBL4152252, “Fluorine walk: The impact of fluorine in quinolone amides on their activity against African sleeping sickness” (Eur J Med Chem, 2018):

Legend:
[1] = tested on: Trypanosoma brucei brucei; test: Antitrypanosomal activity against trypomastigote forms of Trypanosoma brucei brucei TC 221 assessed as parasite growth inhibition after 48 hrs by Alamar blue assay; type: functional, organism-based; details: TC 221, 48 h
[2] = tested on: Trypanosoma brucei brucei; test: Antitrypanosomal activity against trypomastigote forms of Trypanosoma brucei brucei TC 221 assessed as parasite growth inhibition after 72 hrs by Alamar blue assay; type: functional, organism-based; details: TC 221, 72 h
[3] = Cytotoxicity against mouse J774.1 cells after 24 hrs by Alamar blue assay; type: cell-based
[4] = Selectivity index, ratio of CC50 for mouse J774.1 cells to IC50 for trypomastigote forms of Trypanosoma brucei brucei TC 221 assessed as parasite growth inhibition after 48 hrs; type: toxicity; details: read-out: Ratio CC50/IC50
[5] = Half life in rat liver cytosol; type: ADME, subcellular
[6] = Octanol/water partition co-efficient, log P of the compound by HPLC based method; type: physicochemical
[7] = Drug metabolism in rat liver microsomes assessed as CYP450-mediated 6-fluoro-3-(4-fluorobenzylcarbamoyl)-1-(3-hydroxybutyl)-7-morpholino-4-oxo-1,4-dihydroquinolinium formation at 100 uM using NADPH/H+ as co-factor after 30 to 90 mins by LC/MSD iom trap method; type: ADME
[8] = Drug metabolism in rat liver microsomes assessed as CYP450-mediated 6-fluoro-3-(4-fluorobenzylcarbamoyl)-7-morpholino-4-oxo-1,4-dihydroquinolinium formation at 100 uM using NADPH/H+ as co-factor after 30 to 90 mins by LC/MSD iom trap method; type: ADME
[9] = Drug metabolism in rat liver microsomes assessed as CYP450-mediated 1-butyl-3-carboxy-6-fluoro-7-morpholino-4-oxo-1,4-dihydroquinolinium formation at 100 uM using NADPH/H+ as co-factor after 30 to 90 mins by LC/MSD iom trap method; type: ADME
[10] = Drug metabolism in rat liver microsomes assessed as CYP450-mediated 6-fluoro-3-(4-fluorobenzylcarbamoyl)-1-methyl-7-morpholino-4-oxo-1,4-dihydroquinolinium formation at 100 uM using NADPH/H+ as co-factor after 30 to 90 mins by LC/MSD iom trap method; type: ADME
[11] = Drug metabolism in rat liver cytosol assessed as CYP450-mediated 6-fluoro-3-(4-fluorobenzylcarbamoyl)-1-(3-hydroxybutyl)-7-morpholino-4-oxo-1,4-dihydroquinolinium formation at 100 uM using NADPH/H+ as co-factor after 30 to 90 mins by LC/MSD iom trap method; type: ADME, subcellular
[12] = Drug metabolism in rat liver cytosol assessed as CYP450-mediated 6-fluoro-3-(4-fluorobenzylcarbamoyl)-7-morpholino-4-oxo-1,4-dihydroquinolinium formation at 100 uM using NADPH/H+ as co-factor after 30 to 90 mins by LC/MSD iom trap method; type: ADME, subcellular
[13] = Drug metabolism in rat liver cytosol assessed as CYP450-mediated 1-butyl-3-carboxy-6-fluoro-7-morpholino-4-oxo-1,4-dihydroquinolinium formation at 100 uM using NADPH/H+ as co-factor after 30 to 90 mins by LC/MSD iom trap method; type: ADME, subcellular
[14] = Drug metabolism in rat liver cytosol assessed as CYP450-mediated 6-fluoro-3-(4-fluorobenzylcarbamoyl)-1-methyl-7-morpholino-4-oxo-1,4-dihydroquinolinium formation at 100 uM using NADPH/H+ as co-factor after 30 to 90 mins by LC/MSD iom trap method; type: ADME, subcellular
[15] = Solubility of the compound in RPMI-1640 medium; type: physicochemical
[16] = Stability in rat liver cytosol assessed as compound turnover per mg protein; type: ADME, subcellular
[17] = Drug metabolism in rat liver microsomes assessed as CYP450-mediated 5-fluoro-3-(4-fluorobenzylcarbamoyl)-1-(3-hydroxybutyl)-7-morpholino-4-oxo-1,4-dihydroquinolinium formation at 100 uM using NADPH/H+ as co-factor after 30 to 90 mins by LC/MSD iom trap method; type: ADME
[18] = Drug metabolism in rat liver microsomes assessed as CYP450-mediated 5-fluoro-3-(4-fluorobenzylcarbamoyl)-7-morpholino-4-oxo-1,4-dihydroquinolinium formation at 100 uM using NADPH/H+ as co-factor after 30 to 90 mins by LC/MSD iom trap method; type: ADME
[19] = Drug metabolism in rat liver microsomes assessed as CYP450-mediated 1-butyl-3-carboxy-5-fluoro-7-morpholino-4-oxo-1,4-dihydroquinolinium formation at 100 uM using NADPH/H+ as co-factor after 30 to 90 mins by LC/MSD iom trap method; type: ADME
[20] = Drug metabolism in rat liver microsomes assessed as CYP450-mediated 5-fluoro-3-(4-fluorobenzylcarbamoyl)-1-methyl-7-morpholino-4-oxo-1,4-dihydroquinolinium formation at 100 uM using NADPH/H+ as co-factor after 30 to 90 mins by LC/MSD iom trap method; type: ADME
[21] = Drug metabolism in rat liver cytosol assessed as CYP450-mediated 5-fluoro-3-(4-fluorobenzylcarbamoyl)-1-(3-hydroxybutyl)-7-morpholino-4-oxo-1,4-dihydroquinolinium formation at 100 uM using NADPH/H+ as co-factor after 30 to 90 mins by LC/MSD iom trap method; type: ADME, subcellular
[22] = Drug metabolism in rat liver cytosol assessed as CYP450-mediated 5-fluoro-3-(4-fluorobenzylcarbamoyl)-7-morpholino-4-oxo-1,4-dihydroquinolinium formation at 100 uM using NADPH/H+ as co-factor after 30 to 90 mins by LC/MSD iom trap method; type: ADME, subcellular
[23] = Drug metabolism in rat liver cytosol assessed as CYP450-mediated 1-butyl-3-carboxy-5-fluoro-7-morpholino-4-oxo-1,4-dihydroquinolinium formation at 100 uM using NADPH/H+ as co-factor after 30 to 90 mins by LC/MSD iom trap method; type: ADME, subcellular
[24] = Drug metabolism in rat liver cytosol assessed as CYP450-mediated 5-fluoro-3-(4-fluorobenzylcarbamoyl)-1-methyl-7-morpholino-4-oxo-1,4-dihydroquinolinium formation at 100 uM using NADPH/H+ as co-factor after 30 to 90 mins by LC/MSD iom trap method; type: ADME, subcellular

CCCCn1cc(C(=O)NCc2ccc(F)cc2)c(=O)c2cc(F)c(N3CCOCC3)cc21
IC50 [1]: 0.05 µM | IC50 [2]: 0.09 µM | CC50 at 24 h [3]: > 20 µM | selectivity ratio at 48 h [4]: > 400 | half-life [5]: 6.4 h | logP [6]: 4.13 | Drug metabolism [7]: Metabolite_Detected | Drug metabolism [8]: Metabolite_Detected | Drug metabolism [9]: Metabolite_Detected | Drug metabolism [10]: Metabolite_Detected | Drug metabolism [11]: Metabolite_Detected | Drug metabolism [12]: Metabolite_Detected | Drug metabolism [13]: Metabolite_Detected | Drug metabolism [14]: Metabolite_Detected | solubility [15]: Insoluble

CCCCn1cc(C(=O)NCc2ccc(F)cc2)c(=O)c2c(F)cc(N3CCOCC3)cc21
IC50 [1]: 0.02 µM | IC50 [2]: 0.02 µM | CC50 at 24 h [3]: > 25 µM | selectivity ratio at 48 h [4]: > 1250 | half-life [5]: 7.7 h | Drug metabolism [16]: 3.89 pmol/min/mg protein | logP [6]: 3.41 | Drug metabolism [17]: Metabolite_Detected | Drug metabolism [18]: Metabolite_Detected | Drug metabolism [19]: Metabolite_Detected | Drug metabolism [20]: Metabolite_Detected | Drug metabolism [21]: Metabolite_Detected | Drug metabolism [22]: Metabolite_Detected | Drug metabolism [23]: Metabolite_Detected | Drug metabolism [24]: Metabolite_Detected | solubility [15]: Insoluble
